For one assay, the system named is carrageenin pleurisy. Put plainly: Carrageenin pleurisy model. In kind it is in vivo, Female S.D. rats. The following applies: dexamethasone acetate 150 μg/kg s.c.; six hours. How it is done: The effect of the keratan sulfate oligosaccharide was examined with the carrageenin pleurisy model of rats which is generally used for evaluation of anti-inflammatory agents.
Female S.D. rats (n=37) of about 150 to 170 g weight were used for the test. The λ-carrageenin (Sigma) was dissolved in saline to a concentration of 2%, and the solution was filtered with a 0.8 μm filter. The carrageenin solution obtained was intrathoracically administered at 100 μl/animal to prepare the pleurisy model.
To the pleurisy model of rats (n=19) described above, the keratan sulfate tetrasaccharide (I) dissolved in PBS was subcutaneously (s.c.) administered in 20 mg/kg or 10 mg/kg dose. And as the positive control, steroid (dexamethasone acetate; Banyu Pharmaceutical) was subcutaneously administered to the eight rats described above in 150 μg/kg which was the clinical dose. As the negative control, PBS was subcutaneously administered to the 10 rats. Each administration was carried out immediately after the administration of carrageenin.
Each rat was anatomized six hours after the administration of λ-carrageenin. The thoracic cavity of the rats was opened to collect the retained pleural fluid using a 2-ml syringe with probe. After that, inside of the thoracic cavity was washed with 1 ml of saline, and the washing solution was recovered. The volume of the pleural fluid recovered with the syringe was determined, and the number of leukocyte (cell number) in the pleural fluid was determined by an automatic cytometer. The results are be shown in FIG. 8 and FIG. 9, respectively. In the figures, * and ** represent that they have the significant difference with p<0.05 and p<0.01, respectively (wherein "p" means a level of significance by the Duncan test).

The subject of assay [1] is foot edema reversed passive Arthus reaction. Kind of assay: Foot edema reversed passive Arthus reaction. In kind it is in vivo, Male Crj:SD rats. How it is done: The effect of the keratan sulfate oligosaccharide was examined on the foot edema reversed passive Arthus reaction of rats, which is a type III allergic inflammation model. That is, the rabbit antiovalbumin serum was subcutaneously administered to the planta of the rats which were previously subjected to the administration of the test substances, furthermore ovalbumin was administered by injection into the caudal vein thereof to induce inflammation (edema), and the inhibitory effect on edema of the test substances was examined.
Male Crj:SD rats of five weeks old were subjected to a fast of about 17 hours after a week period of quarantine, and, before inducing inflammation, subjected to the administration of the purified keratan sulfate tetrasaccharide (I) which was prepared in Example 1, indomethacin (Sigma; Lot No. 19F0018), or dexamethasone (Banyu Pharmaceutical); Decadron injection; Lot No. 8D307P) as the test substances, or saline (Otsuka Pharmaceutical; Lot No. K3H72) as the negative control. The keratan sulfate tetrasaccharide (I) and dexamethasone were dissolved in saline, respectively, and the indomethacin was dissolved in 0.5% sodium carboxymethylcellulose (CMC-Na; Wako Pure Chemical Industries; Lot No. PTN1418) in use. The volume of dose was 0.5 ml per 100 g weight in each test. Concerning the route of administration, the keratan sulfate tetrasaccharide (I), saline, and dexamethasone were administered from the caudal vein, and the indomethacin was orally administered. And the substances except for indomethacin were administered by the blind method.
The dose and administration schedule of each test substance were as follows. Each group consisted of five animals.
The rabbit antiovalbumin serum was subcutaneously administered to each of the rats described above on the planta thereof, and ovalbumin was further administered by injection into the caudal vein to induce inflammation foot edema. The antiserum used was prepared as follows. That is, to the regions of back of rabbits, 1 ml of the equivalently mixed solution (emulsion) of the saline containing 2% ovalbumin (10 mg per one animal, Egg Albumin 5×Cryst, Lot No. P93601; Seikagaku Corporation) and the Freund's complete adjuvant (FCA) was intradermally injected once a week three times totally to subject themselves to sensitization. About 34 days after the last sensitization, the blood was drawn to obtain the antiserum. The antibody titer of the antiserum obtained was determined by the double layer method. Namely, the determination was performed using the white precipitation reaction of the antiserum diluted with saline and the saline containing 0.1% ovalbumin (1 mg/ml) as the indicator. As a result, the antibody titer of the antiserum obtained was x2^7.
After the period which is designed for each group, each 0.1 ml of the sixfold diluted antiserum was subcutaneously administered to the planta of left rear foot of the rats which were subjected to the administration of each test substance. Then, the saline containing 0.5% ovalbumin (25 mg/5 ml/kg) was administered into the caudal vein to induce inflammation. The volume of the treated feet in each group was determined before inducing inflammation, and one, two, three and four hours after inducing inflammation by a foot volume determining device (TK-101, Unicom) to yield the foot edematization rate from the difference from the value before the induction, and the edematization inhibitory rate of the test substance administered group to the control group was calculated. In each edematization rate obtained, the difference between the averages was tested by the minimum significant difference test. The foot edematization rate and the edematization inhibitory rate of each administered group are shown in Table 9, and the foot edematization rate of the administered groups which was subjected to the administration of the agent at five minutes and at three hours before inducing inflammation are shown in FIG. 6 and FIG. 7, respectively. […]

For `CC(=O)OCC(=O)[C@@]1(O)[C@H](C)C[C@H]2[C@@H]3CCC4=CC(=O)C=C[C@]4(C)[C@@]3(F)[C@@H](O)C[C@@]21C` [Dexamethasone Acetate, dexamethasone acetate, reference compound], in the assay with carrageenin pleurisy, the “number of leukocyte in pleural fluid (FIG. 9)” value is recorded as “significantly less than that in the control group” and the “quantity of pleural fluid (FIG. 8)” value is given as “significantly less than that in the negative control group”.
For the compound `C[C@@H]1C[C@H]2[C@@H]3CCC4=CC(=O)C=C[C@]4(C)[C@@]3(F)[C@@H](O)C[C@]2(C)[C@@]1(O)C(=O)CO` [Dexamethasone, dexamethasone, reference compound], the “Inhibitory Rate” value was determined as 47.8% in assay [1] (1 Hour Later, dexamethasone 1 mg/kg i.v. at 3 hours before inducing edema); 31.7% in assay [1] (2 Hours Later, dexamethasone 1 mg/kg i.v. at 3 hours before inducing edema); 39.9% in assay [1] (3 Hours Later, dexamethasone 1 mg/kg i.v. at 3 hours before inducing edema); 58.1% in assay [1] (4 Hours Later, dexamethasone 1 mg/kg i.v. at 3 hours before inducing edema). For the same compound, the “Edematization Rate” value in assay [1] (1 Hour Later, dexamethasone 1 mg/kg i.v. at 3 hours before inducing edema, P < 0.01, control 40.9) was 21.3 ± 3.1%; in assay [1] (2 Hours Later, dexamethasone 1 mg/kg i.v. at 3 hours before inducing edema, P < 0.01, control 46.3), 31.6 ± 2.2%; in assay [1] (3 Hours Later, dexamethasone 1 mg/kg i.v. at 3 hours before inducing edema, P < 0.01, control 51.2), 30.7 ± 1.5%; in assay [1] (4 Hours Later, dexamethasone 1 mg/kg i.v. at 3 hours before inducing edema, P < 0.01, control 44.9), 18.8%. Moreover, in assay [1] (dexamethasone 1 mg/kg, three hours before), the “foot edematization rate, significance (result in words)” value is “significantly low values were observed at any determination point between one and four hours after inducing inflammation”.
Consider `COc1ccc2c(c1)c(CC(=O)O)c(C)n2C(=O)c1ccc(Cl)cc1` [Indomethacin, indomethacin, reference compound], for which the “Inhibitory Rate” value in assay [1] (1 Hour Later, 5 mg/kg oral at 30 minutes before inducing edema) was determined as 13.5%; in assay [1] (2 Hours Later, 5 mg/kg oral at 30 minutes before inducing edema), 17.5%; in assay [1] (3 Hours Later, 5 mg/kg oral at 30 minutes before inducing edema), 9.0%; in assay [1] (4 Hours Later, 5 mg/kg oral at 30 minutes before inducing edema), 13.8%. For the same compound, the “Edematization Rate” value in assay [1] (1 Hour Later, 5 mg/kg oral at 30 minutes before inducing edema, control 40.9) is given as 35.4 ± 1.6%; in assay [1] (2 Hours Later, 5 mg/kg oral at 30 minutes before inducing edema, P < 0.05, control 46.3), 38.2 ± 2.9%; in assay [1] (3 Hours Later, 5 mg/kg oral at 30 minutes before inducing edema, control 51.2), 46.4 ± 2.8%; in assay [1] (4 Hours Later, 5 mg/kg oral at 30 minutes before inducing edema, P < 0.05, control 44.9), 38.7 ± 3.1%. For the same compound, in assay [1] (indomethacin 5 mg/kg oral, 30 minutes before), the “foot edematization rate, significance (result in words)” value was “significantly low values were observed after two hours and after four hours”.

Values taken from patent publication US5939403A, “Keratan sulfate oligosaccharide fraction and pharmaceutical containing the same” (Seikagaku Corporation, priority 1994, dated 1999).
